Among the test systems are NCI-H460 lung; SNB-75 CNS; NCI-H23 lung; RPMI-8226 leukemia; HOP-92 NSCLC; MOLT-4 leukemia; U251 CNS; HOP-62 NSCLC; SK-OV-3 ovarian.
Experiment in all cases: growth of human tumour cells (NCI), 48 h

The values that follow come from PubChem BioAssay (NCI).

Each structure is given as a SMILES string. Values joined by “and” are separate entries in the source; they are usually repeats but may differ in a detail not shown here. Identical values can stand only once.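 1) Cells in 96-well plates. 2) Compound, 48 h, 5 concentrations. 3) Linear interpolation between surrounding doses. 4) Unreached endpoint = highest concentration. GI50 marks 50% less growth. TGI denotes the concentration required for complete inhibition of growth.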 Some results are limits rather than exact numbers.

In the case of `c1cc(CNC2C3CCC(C3)C2c2c[nH]c3ccccc23)cc(CNC2C3CCC(C3)C2c2c[nH]c3ccccc23)c1` (stereo unspecified), the GI50 in the test on NCI-H460 lung is 0.313 µM; in the test on NCI-H23 lung, 1.47 µM; in the test with HOP-92 NSCLC it was 1.09 µM and 1.29 µM; with MOLT-4 leukemia, 1.07 µM. Besides, the TGI is > 100 µM with NCI-H460 lung; 1.21 µM with SNB-75 CNS; 3.34 µM and 2.88 µM with NCI-H23 lung; > 100 µM in the test on RPMI-8226 leukemia; 2.33 µM and 2.63 µM in the test on HOP-92 NSCLC; 3.38 µM in the test on MOLT-4 leukemia. Also, the TGI in the test on U251 CNS amounted to 1.32 µM.

Consider `CCOC(=O)c1cc(/C=C/C(C)=C/C(=O)OC)n(C)c1C`, for which the TGI in the test with NCI-H460 lung, in the test with HOP-62 NSCLC, in the test with NCI-H23 lung, in the test on RPMI-8226 leukemia, in the test with SK-OV-3 ovarian and in the test on HOP-92 NSCLC was > 100 µM each time. Also, the TGI with MOLT-4 leukemia and in the test on U251 CNS was > 100 µM throughout.

Consider `COc1ccc(/C=C2\C(=O)N(C(=O)Cc3ccccc3)N=C2C)cc1OC`, for which the TGI in the test on SNB-75 CNS, in the test on HOP-62 NSCLC, in the test on NCI-H23 lung, in the test on RPMI-8226 leukemia and in the test on MOLT-4 leukemia was > 100 µM each time.

Consider `O=C1C2Cc3ccccc3CN2C(=O)N1CCN1CCCC1` (stereo unspecified), for which the TGI in the test on NCI-H460 lung, in the test with HOP-62 NSCLC, with NCI-H23 lung, in the test on RPMI-8226 leukemia, in the test with MOLT-4 leukemia and in the test on U251 CNS was > 100 µM in each case.

As for `CCOC(=O)CC1NC(=O)CS1` (stereo unspecified), the TGI in the test with NCI-H460 lung is > 100 µM; with SNB-75 CNS, > 100 µM; in the test with HOP-62 NSCLC, > 100 µM; in the test on NCI-H23 lung, > 100 µM; in the test on RPMI-8226 leukemia it was 60.1 µM; in the test on SK-OV-3 ovarian, > 100 µM. In addition, the TGI with HOP-92 NSCLC, in the test with MOLT-4 leukemia and with U251 CNS was > 100 µM in each case.

With `C[C-](O)O.O/C(=C\[C-](O)c1ccccc1)c1ccccc1.O/C(=C\[C-](O)c1ccccc1)c1ccccc1.[Nd+3]` (stereo unspecified), the GI50 in the test on NCI-H460 lung was 4.99 µM; in the test with SNB-75 CNS, 1.77 µM; in the test with HOP-62 NSCLC, 3.1 µM; in the test with NCI-H23 lung, 4.69 µM; in the test on RPMI-8226 leukemia, 6.43 µM; with SK-OV-3 ovarian, 16.8 µM. Further, the GI50 is 12.9 µM in the test on HOP-92 NSCLC, 3.89 µM in the test on MOLT-4 leukemia and 4.46 µM in the test on U251 CNS. Moreover, the TGI in the test with NCI-H460 lung came to 71 µM; with SNB-75 CNS it was 6.35 µM; in the test with HOP-62 NSCLC, 15.7 µM; in the test on NCI-H23 lung it was 29.4 µM; in the test on RPMI-8226 leukemia, 33.5 µM; in the test on SK-OV-3 ovarian it was 64.7 µM. Further, the TGI came to 35.3 µM in the test on HOP-92 NSCLC, 28.7 µM with MOLT-4 leukemia and 22.1 µM with U251 CNS.

For `Cc1c2cc[n+](C)cc2c(C)c2c1[nH]c1ccc(O)c(OCC(F)(F)F)c12`, the TGI in the test with NCI-H460 lung was found to be 48.6 µM; in the test on SNB-75 CNS, 1.35 µM; in the test on HOP-62 NSCLC, 5.28 µM; with NCI-H23 lung, 5.48 µM; in the test with RPMI-8226 leukemia, 16.8 µM; in the test on SK-OV-3 ovarian, 17.2 µM. For the same compound, the results for the TGI in the test on HOP-92 NSCLC, in the test with MOLT-4 leukemia and with U251 CNS were 17.4 µM, 22.1 µM and 7 µM, respectively.

`C[C@]12CC[C@@H]3c4ccc(O)cc4C(O)C[C@H]3[C@@H]1CCC2=O` (stereo partly specified): the GI50 is > 100 µM with NCI-H460 lung; 26.9 µM with SNB-75 CNS; > 100 µM with HOP-62 NSCLC; > 100 µM with NCI-H23 lung; 60.6 µM in the test on RPMI-8226 leukemia; > 100 µM in the test with SK-OV-3 ovarian. Moreover, the figures for the GI50 in the test on HOP-92 NSCLC, in the test on MOLT-4 leukemia and in the test with U251 CNS were 53.8 µM, > 100 µM and > 100 µM, respectively. Further, the TGI in the test with NCI-H460 lung, with SNB-75 CNS, in the test with HOP-62 NSCLC, in the test on NCI-H23 lung, in the test on RPMI-8226 leukemia and in the test with SK-OV-3 ovarian was > 100 µM throughout. Also, the TGI with HOP-92 NSCLC, in the test with MOLT-4 leukemia and with U251 CNS was > 100 µM in each case.

As to `CN=C1SC(=Nc2ccc(N(C)C)cc2)N1C`, the TGI is > 100 µM in the test on NCI-H460 lung; 49.1 µM with SNB-75 CNS; > 100 µM with HOP-62 NSCLC; > 100 µM with NCI-H23 lung; > 100 µM with RPMI-8226 leukemia; 67 µM in the test with SK-OV-3 ovarian. In addition, the values for the TGI with HOP-92 NSCLC, with MOLT-4 leukemia and in the test on U251 CNS were 53.5 µM, > 100 µM and > 100 µM, respectively.

With `C1=CC=C2NCCOCCNC3=CC=CC=CC3=NCCOCCN=C2C=C1`, the TGI in the test with NCI-H460 lung, with SNB-75 CNS, with HOP-62 NSCLC, with NCI-H23 lung, in the test on RPMI-8226 leukemia and in the test with SK-OV-3 ovarian was > 100 µM throughout. The TGI with MOLT-4 leukemia and with U251 CNS was > 100 µM in each case.
